# From ChEMBL document CHEMBL1146420, “Isolation and characterization of 1,3-dimethylisoguanine from the Bermudian sponge Amphimedon viridis” (J Nat Prod, 1997)
# Experiment: Cytotoxicity against human ovarian cancer cells
# Type: functional, cell-based
# Conditions: Cancer cell lines
smiles,measurement,value
Cn1c(=N)c2nc[nH]c2n(C)c1=O,IC50,2.1 µg/mL
